# Reference: patent EP2439195B1, “NAPHTHALENE CARBOXAMIDE DERIVATIVES AS INHIBITORS OF PROTEIN KINASE AND HISTONE DEACETYLASE, PREPARATION METHODS AND USES THEREOF” (Shenzhen Chipscreen Biosciences, Ltd., priority 2009, dated 2010)
# Assays:
# Assay type in all cases: in vivo
# [1] = test system: SSMC7721 human liver cancer cells; test: Nude mice tumor transplanted from human SSMC7721 liver cancer (Example 53); conditions: for TGI (%): tumor growth inhibition
# Description: Female nu/nu mice of 18∼20g were fed by normal diet for 3 days. Then the cultured SSMC7721 human liver cancer cells were implanted into the armpit of 50 mice. […] One group was treated with vehicle. One group was treated with Sutent, the positive control drug. […] Each group was dosed orally once a day for 24 days. […] The tumor growth inhibition of each group was calculated using the following formula: {[([…])} × 100%. [formula] The experimental results are shown in Table 7 and Figure 3.
# human A549 lung cancer = test: Nude mice tumor transplanted from human A549 lung cancer (Example 51); conditions: for TGI (%): tumor growth inhibition
# Description: Then the cultured A549 human lung cancer cells were implanted into the armpit of 50 mice. […] Each group had 8 mice. One group was treated with vehicle. One group was treated with Sutent, the positive control drug. […] Each group was dosed orally once a day for 24 days. Tumor volumes along with body weights were recorded twice per week. On the next day after 24 doses, the mice were killed, and tumors were weighed. The tumor growth inhibition of each group was calculated using the following formula: {[(the average tumor weight of control group)-(the average tumor weight of test group)]/(the average tumor weight of control group)}×100%.
# human HCT-8 colon cancer [2] = test: Nude mice tumor transplanted from human HCT-8 colon cancer (Example 52); conditions: for Tumor weight: killed after 20 doses; for TGI (%): tumor growth inhibition
# Description: Female nu/nu mice of 18∼20g were fed by normal diet for 3 days. Then the cultured HCT-8 human colon cancer cells were implanted into the armpit of 50 mice. […] Each group had 8 mice. One group was treated with vehicle. One group was treated with Sutent, the positive control drug. […] Each group was dosed orally once a day for 24 days. Tumor volumes along with body weights were recorded twice per week. On the next day after 20 doses, the mice were killed, and tumors were weighed. The tumor growth inhibition of each group was calculated using the following formula: {[([…])} × 100%. [formula] The experimental results are shown in Table 6 and Figure 2.
# human HCT-8 colon cancer [3] = test: Nude mice tumor transplanted from human HCT-8 colon cancer (Example 54); conditions: for TGI (%): tumor growth inhibition
# Description: Female nu/nu mice of 18∼20g were fed by normal diet for 3 days. Then the cultured HCT-8 human colon cancer cells were implanted into the armpit of 50 mice. […] Each group had 8 mice. One group was treated with vehicle. One group was treated with Sutent, the positive control drug. Two groups were treated with compound 33 at different concentrations. The other two groups were treated with compound 34 at different concentrations. Each group was dosed orally once a day for 20 days. […] The tumor growth inhibition of each group was calculated using the following formula: {[(the average tumor weight of control group)-(the average tumor weight of test group)]/(the average tumor weight of control group)} × 100%. [formula] The experimental results are shown in Table 8 and Figure 4.
# human HCT-8 colon cancer [4] = test: Nude mice tumor transplanted from human HCT-8 colon cancer (Example 55); conditions: 20 days; for TGI (%): tumor growth inhibition
# Description: Female nu/nu mice of 18∼20g were fed by normal diet for 3 days. Then the cultured HCT-8 human colon cancer cells were implanted into the armpit of 50 mice. […] One group was treated with vehicle. One group was treated with Sutent, the positive control drug. Two groups were treated with compound 33 at different concentrations. The other two groups were treated with compound 37 at different concentrations. Compound 33 was administered twice a day with an interval of 6 hours. For other groups, administration was performed once a day. Each group was dosed orally for 20 days. […] The tumor growth inhibition of each group was calculated using the following formula: {[(the average tumor weight of control group)-(the average tumor weight of test group)]/(the average tumor weight of control group)} × 100%. [formula] The experimental results are shown in Table 9 and Figure 5.
# [5] = 2.5 mg/kg orally once a day for 24 days
# [6] = 5 mg/kg orally once a day for 24 days
# [7] = 10 mg/kg orally once a day for 24 days
# [8] = 20 mg/kg orally once a day for 24 days
# [9] = 40 mg/kg orally once a day for 24 days
# [10] = 30 mg/kg orally once a day for 20 days
# [11] = 60 mg/kg orally once a day for 20 days
# [12] = 30x2 mg/kg orally twice a day with an interval of 6 hours
# [13] = 60x2 mg/kg orally twice a day with an interval of 6 hours
compound,measurement,setting,value
"COc1ccc2c(Oc3ccc4c(C(=O)Nc5ccccc5N)cccc4c3)ccnc2c1 [Compound 31, N-(2-aminophenyl)-6-(7-methoxyquinolin-4-yloxy)-1-naphthamide]",Tumor weight,[1]; [5],1.63 ± 0.70 g
same,Body weight (g) end,[1]; [5],23.2 ± 2.1 g
same,Body weight (g) start,[1]; [5],20.1 ± 0.9 g
same,TGI (%),[1]; [5],51.7%
same,Tumor weight,[1]; [6],1.16 ± 0.55 g
same,Body weight (g) end,[1]; [6],24.8 ± 1.5 g
same,Body weight (g) start,[1]; [6],20.8 ± 1.2 g
same,TGI (%),[1]; [6],65.4%
same,Tumor weight,[1]; [7],0.70 ± 0.45 g
same,Body weight (g) end,[1]; [7],23.6 ± 1.5 g
same,Body weight (g) start,[1]; [7],20.4 ± 1.6 g
same,TGI (%),[1]; [7],79.2%
same,Tumor weight,[1]; [8],0.53 ± 0.28 g
same,Body weight (g) end,[1]; [8],21.0 ± 2.2 g
same,Body weight (g) start,[1]; [8],20.2 ± 1.7 g
same,TGI (%),[1]; [8],84.4%
same,Tumor weight,human A549 lung cancer; [6],2.20 ± 0.57 g
same,Body weight (g) end,human A549 lung cancer; [6],24.6 ± 1.3 g
same,Body weight (g) start,human A549 lung cancer; [6],21.1 ± 0.6 g
same,Tumor weight,human A549 lung cancer; [7],2.13 ± 0.51 g
same,Body weight (g) end,human A549 lung cancer; [7],25.1 ± 1.3 g
same,Body weight (g) start,human A549 lung cancer; [7],19.9 ± 1.3 g
same,Tumor weight,human A549 lung cancer; [8],1.50 ± 0.41 g
same,Body weight (g) end,human A549 lung cancer; [8],24.2 ± 0.7 g
same,Body weight (g) start,human A549 lung cancer; [8],20.6 ± 1.1 g
same,TGI (%),human A549 lung cancer; [8],64.3%
same,Tumor weight,human A549 lung cancer; [9],1.06 ± 0.54 g
same,Body weight (g) end,human A549 lung cancer; [9],22.6 ± 2.4 g
same,Body weight (g) start,human A549 lung cancer; [9],20.0 ± 0.9 g
same,TGI (%),human A549 lung cancer; [9],74.8%
same,Body weight (g) end,human HCT-8 colon cancer [2]; 2.5 mg/kg orally once a day,24.5 ± 1.1 g
same,Tumor weight,human HCT-8 colon cancer [2]; 2.5 mg/kg orally once a day,2.18 ± 1.28 g
same,Body weight (g) start,human HCT-8 colon cancer [2]; 2.5 mg/kg orally once a day,20.3 ± 0.8 g
same,TGI (%),human HCT-8 colon cancer [2]; 2.5 mg/kg orally once a day,54.5%
same,Body weight (g) end,human HCT-8 colon cancer [2]; 5 mg/kg orally once a day,24.8 ± 1.5 g
same,Tumor weight,human HCT-8 colon cancer [2]; 5 mg/kg orally once a day,0.78 ± 0.25 g
same,Body weight (g) start,human HCT-8 colon cancer [2]; 5 mg/kg orally once a day,21.6 ± 1.4 g
same,TGI (%),human HCT-8 colon cancer [2]; 5 mg/kg orally once a day,83.8%
same,Body weight (g) end,human HCT-8 colon cancer [2]; 10 mg/kg orally once a day,23.7 ± 0.8 g
same,Tumor weight,human HCT-8 colon cancer [2]; 10 mg/kg orally once a day,0.46 ± 0.15 g
same,Body weight (g) start,human HCT-8 colon cancer [2]; 10 mg/kg orally once a day,20.7 ± 1.1 g
same,TGI (%),human HCT-8 colon cancer [2]; 10 mg/kg orally once a day,90.3%
same,Body weight (g) end,human HCT-8 colon cancer [2]; 20 mg/kg orally once a day,22.5 ± 1.6 g
same,Tumor weight,human HCT-8 colon cancer [2]; 20 mg/kg orally once a day,0.19 ± 0.06 g
same,Body weight (g) start,human HCT-8 colon cancer [2]; 20 mg/kg orally once a day,20.5 ± 1.3 g
same,TGI (%),human HCT-8 colon cancer [2]; 20 mg/kg orally once a day,96.1%
"COc1ccc2c(Oc3ccc4c(C(=O)NCc5ccc(C(=O)Nc6ccccc6N)cc5)cccc4c3)ccnc2c1 [Compound 33, N-(4-((2-aminophenyl)carbamoyl)benzyl)-6-(7-methoxyquinolin-4-yloxy)-1-naphthamide]",Tumor weight,human HCT-8 colon cancer [3]; [10],2.31 ± 0.43 g
same,Body weight (g) end,human HCT-8 colon cancer [3]; [10],21.1 ± 2.2 g
same,Body weight (g) start,human HCT-8 colon cancer [3]; [10],19.0 ± 1.3 g
same,TGI (%),human HCT-8 colon cancer [3]; [10],43.3%
same,Tumor weight,human HCT-8 colon cancer [3]; [11],1.98 ± 0.61 g
same,Body weight (g) end,human HCT-8 colon cancer [3]; [11],21.4 ± 1.5 g
same,Body weight (g) start,human HCT-8 colon cancer [3]; [11],19.4 ± 0.8 g
same,TGI (%),human HCT-8 colon cancer [3]; [11],51.5%
same,Tumor weight,human HCT-8 colon cancer [4]; [12],0.73 ± 0.36 g
same,Body weight (g) end,human HCT-8 colon cancer [4]; [12],22.6 ± 1.6 g
same,Body weight (g) start,human HCT-8 colon cancer [4]; [12],21.1 ± 1.2 g
same,TGI (%),human HCT-8 colon cancer [4]; [12],88.1%
same,Tumor weight,human HCT-8 colon cancer [4]; [13],0.45 ± 0.05 g
same,Body weight (g) end,human HCT-8 colon cancer [4]; [13],19.0 ± 1.8 g
same,Body weight (g) start,human HCT-8 colon cancer [4]; [13],20.1 ± 0.9 g
same,TGI (%),human HCT-8 colon cancer [4]; [13],92.6%
